Legend:
[1] = system: Tyrosine-protein kinase ABL1 (Homo sapiens), P00519 [H396P]; assay: Inhibition of human ABL1 H396P mutant (27 to end residues) assessed as residual activity at 1 uM using EAIYAAPFAKKK as substrate incubated for 40 mins in presence of [gamma-33ATP] by scintillation counting based radiometry assay relative to control
[2] = target: Calcium/calmodulin-dependent protein kinase type 1D (Homo sapiens) (UniProt Q8IU85); assay: Inhibition of recombinant full length human CaMK1delta assessed as residual activity at 1 uM […] incubated for 40 mins in presence of [gamma-33ATP] by scintillation counting based radiometry assay relative to control
Calcium/calmodulin-dependent protein kinase type 1D (Homo sapiens), sequence (Q8IU85 whole entry, looked up): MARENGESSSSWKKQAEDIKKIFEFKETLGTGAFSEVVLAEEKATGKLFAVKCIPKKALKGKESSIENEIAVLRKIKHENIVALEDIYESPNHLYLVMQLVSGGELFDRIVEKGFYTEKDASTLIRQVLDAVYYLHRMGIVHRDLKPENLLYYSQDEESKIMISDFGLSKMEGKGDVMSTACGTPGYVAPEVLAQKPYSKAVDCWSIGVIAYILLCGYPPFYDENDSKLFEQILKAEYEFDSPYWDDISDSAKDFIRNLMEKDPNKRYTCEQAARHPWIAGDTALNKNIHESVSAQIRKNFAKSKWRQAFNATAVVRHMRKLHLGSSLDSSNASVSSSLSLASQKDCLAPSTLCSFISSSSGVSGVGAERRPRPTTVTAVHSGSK

[3] = target: Transient receptor potential cation channel subfamily M member 7 (Homo sapiens) (UniProt Q96QT4); assay: Inhibition of recombinant human CHAK1 (1180 to end residues) assessed as residual activity at 1 uM using myelin basic protein as substrate incubated for 40 mins in presence of [gamma-33ATP] by scintillation counting based radiometry assay relative to control
[4] = target: Casein kinase I isoform gamma-1 (Homo sapiens) (UniProt Q9HCP0); assay: Inhibition of recombinant human CK1gamma1 (25 to 355 residues) assessed as residual activity at 1 uM using KRRRALS(p)VASLPGL as substrate measured after 40 mins in presence of [gamma33P]ATP by scintillation counting method
[5] = target: Tyrosine-protein kinase Fer (Homo sapiens) (UniProt P16591); assay: Inhibition of recombinant human FER (541 to end residues) assessed as residual activity at 1 uM using KKKSPGEYVNIEFG as substrate at 40 mins in presence of [gamma-33ATP] by scintillation counting based radiometry assay relative to control
Tyrosine-protein kinase Fer (Homo sapiens), sequence (P16591 whole entry, looked up, the tested form may be a part): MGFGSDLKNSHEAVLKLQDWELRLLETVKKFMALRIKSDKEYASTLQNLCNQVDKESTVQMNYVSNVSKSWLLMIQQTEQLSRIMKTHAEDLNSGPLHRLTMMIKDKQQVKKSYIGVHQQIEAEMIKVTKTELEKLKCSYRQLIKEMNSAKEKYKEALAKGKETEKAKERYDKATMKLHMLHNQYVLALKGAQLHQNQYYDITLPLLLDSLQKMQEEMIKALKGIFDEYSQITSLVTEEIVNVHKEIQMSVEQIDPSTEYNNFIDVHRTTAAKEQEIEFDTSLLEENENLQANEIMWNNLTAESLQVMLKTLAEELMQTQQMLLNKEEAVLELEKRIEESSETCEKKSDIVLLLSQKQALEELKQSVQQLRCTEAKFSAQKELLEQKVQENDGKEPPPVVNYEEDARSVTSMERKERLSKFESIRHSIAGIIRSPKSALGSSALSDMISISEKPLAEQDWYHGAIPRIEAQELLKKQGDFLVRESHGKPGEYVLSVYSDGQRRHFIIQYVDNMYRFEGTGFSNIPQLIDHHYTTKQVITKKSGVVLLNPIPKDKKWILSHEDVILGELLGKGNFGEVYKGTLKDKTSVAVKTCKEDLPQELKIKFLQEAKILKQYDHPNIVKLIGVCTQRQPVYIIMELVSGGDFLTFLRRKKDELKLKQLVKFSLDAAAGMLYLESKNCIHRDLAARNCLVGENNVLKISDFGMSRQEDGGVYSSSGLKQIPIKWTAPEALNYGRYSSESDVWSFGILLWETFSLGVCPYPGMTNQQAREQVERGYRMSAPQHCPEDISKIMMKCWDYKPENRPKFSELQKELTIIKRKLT

[6] = system: Fibroblast growth factor receptor 2 (Homo sapiens), P21802 [N549H]; assay: Inhibition of recombinant human FGFR2 N549H mutant (456 to 770 residues) assessed as residual activity at 1 uM using GGEEEEYFELVKKKK as substrate at 40 mins in presence of [gamma-33ATP] by scintillation counting based radiometry assay relative to control
GSK-3beta (H350L mutant) = GSK-3beta (H350L mutant) (Homo sapiens, UniProt P49841, H350L); assay: Inhibition of human GSK-3beta H350L mutant (2 to end residues) assessed as residual activity at 1 uM using phospho GS2 peptide as substrate after 40 mins by [gamma-33ATP] radiometric assay relative to control; settings: human GSK-3beta H350L mutant enzyme (residues 2 to end), probe phospho GS2 peptide, read-out: Activity
[7] = target: Inhibitor of nuclear factor kappa-B kinase subunit beta (Homo sapiens) (UniProt O14920); assay: Inhibition of full length human IKKbeta assessed as residual activity at 1 uM using peptide as substrate after 40 mins by [gamma-33ATP] radiometric assay relative to control
[8] = system: Hepatocyte growth factor receptor (Homo sapiens), P08581 [Y1230D]; assay: Inhibition of recombinant human MET A1209G/V1290L/Y1248D mutant (974 to end residues) assessed as residual activity at 1 uM using KKKGQEEEYVFIE as substrate incubated for 40 mins in presence of [gamma-33ATP by scintillation counting based radiometry assay relative to control
[9] = target: SRSF protein kinase 3 (Homo sapiens) (UniProt Q9UPE1); assay: Inhibition of recombinant full-length human MSSK1 assessed as residual activity at 1 uM using ERMRPRKRQGSVRRRV as substrate measured after 40 mins in presence of [gamma33P]ATP by scintillation counting method relative to control
SRSF protein kinase 3 (Homo sapiens), sequence (Q9UPE1 whole entry): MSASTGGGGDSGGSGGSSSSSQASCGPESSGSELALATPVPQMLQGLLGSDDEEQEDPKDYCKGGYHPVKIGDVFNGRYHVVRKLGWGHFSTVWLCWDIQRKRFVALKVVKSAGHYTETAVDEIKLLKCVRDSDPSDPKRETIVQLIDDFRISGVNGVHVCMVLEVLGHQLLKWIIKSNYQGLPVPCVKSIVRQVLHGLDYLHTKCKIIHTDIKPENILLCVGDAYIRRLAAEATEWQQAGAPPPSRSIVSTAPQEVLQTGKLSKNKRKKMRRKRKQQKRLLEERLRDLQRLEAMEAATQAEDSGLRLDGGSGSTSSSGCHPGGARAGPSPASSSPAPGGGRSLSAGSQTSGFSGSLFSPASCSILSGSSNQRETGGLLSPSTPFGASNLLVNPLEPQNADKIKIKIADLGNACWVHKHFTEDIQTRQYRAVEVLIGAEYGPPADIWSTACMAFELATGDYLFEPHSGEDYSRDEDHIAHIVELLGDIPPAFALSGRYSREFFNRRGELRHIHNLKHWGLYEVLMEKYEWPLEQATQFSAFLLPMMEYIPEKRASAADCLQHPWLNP

[10] = target: Serine/threonine-protein kinase 4 (Homo sapiens) (UniProt Q13043); assay: Inhibition of recombinant full-length human MST1 assessed as residual activity at 1 uM using KKSRGDYMTMQIG as substrate measured after 40 mins in presence of [gamma33P]ATP by scintillation counting method relative to control
Serine/threonine-protein kinase 4 (Homo sapiens), sequence (Q13043 whole entry): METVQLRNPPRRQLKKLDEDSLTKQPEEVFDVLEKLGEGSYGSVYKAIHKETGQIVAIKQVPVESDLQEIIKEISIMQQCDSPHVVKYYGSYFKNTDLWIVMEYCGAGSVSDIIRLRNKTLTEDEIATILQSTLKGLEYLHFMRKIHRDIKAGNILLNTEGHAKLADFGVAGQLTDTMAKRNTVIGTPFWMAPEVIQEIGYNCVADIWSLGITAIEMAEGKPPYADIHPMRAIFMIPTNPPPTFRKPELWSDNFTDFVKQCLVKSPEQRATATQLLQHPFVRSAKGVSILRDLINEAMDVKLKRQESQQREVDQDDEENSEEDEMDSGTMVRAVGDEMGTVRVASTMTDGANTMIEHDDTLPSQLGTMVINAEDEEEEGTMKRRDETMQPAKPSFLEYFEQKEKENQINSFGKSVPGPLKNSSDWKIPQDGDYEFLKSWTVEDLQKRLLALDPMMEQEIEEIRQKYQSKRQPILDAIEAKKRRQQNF

[11] = target: Serine/threonine-protein kinase PAK 3 (Homo sapiens) (UniProt O75914); assay: Inhibition of recombinant full-length human PAK3 assessed as residual activity at 1 uM using RRRLSFAEPG as substrate measured after 40 mins in presence of [gamma33P]ATP by scintillation counting method relative to control
Serine/threonine-protein kinase PAK 3 (Homo sapiens), sequence (O75914 whole entry, looked up): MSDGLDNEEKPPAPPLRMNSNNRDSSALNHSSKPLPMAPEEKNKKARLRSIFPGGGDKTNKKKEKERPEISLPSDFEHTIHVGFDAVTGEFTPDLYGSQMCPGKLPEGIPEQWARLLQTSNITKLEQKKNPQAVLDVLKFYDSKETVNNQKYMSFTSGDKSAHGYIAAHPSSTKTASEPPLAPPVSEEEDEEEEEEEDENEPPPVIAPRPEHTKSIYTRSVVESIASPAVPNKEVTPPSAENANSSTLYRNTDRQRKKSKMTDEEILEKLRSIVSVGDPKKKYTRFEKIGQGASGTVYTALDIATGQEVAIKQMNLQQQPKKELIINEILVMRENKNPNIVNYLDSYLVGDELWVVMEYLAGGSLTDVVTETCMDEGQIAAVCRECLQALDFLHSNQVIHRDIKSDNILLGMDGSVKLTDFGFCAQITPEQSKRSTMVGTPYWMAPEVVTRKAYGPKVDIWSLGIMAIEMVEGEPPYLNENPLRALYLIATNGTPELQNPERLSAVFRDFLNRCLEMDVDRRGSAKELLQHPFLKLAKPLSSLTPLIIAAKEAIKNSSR

[12] = target: Protein kinase C beta type (Homo sapiens) (UniProt P05771); assay: Inhibition of recombinant human PKCbeta2 (2 to end residues) assessed as residual activity at 1 uM using histone H1 as substrate measured after 40 mins in presence of [gamma33P]ATP by scintillation counting method relative to control
[13] = system: Proto-oncogene tyrosine-protein kinase receptor Ret (Homo sapiens), P07949 [V804L]; assay: Inhibition of recombinant human Ret V804L mutant (658 to end residues) assessed as residual activity at 1 uM using KKKSPGEYVNIEFG as substrate measured after 40 mins in presence of [gamma33P]ATP by scintillation counting method relative to control
[14] = target: Serine/threonine-protein kinase SIK1 (Homo sapiens) (UniProt P57059); assay: Inhibition of recombinant human SIK (1 to 281 residues) assessed as residual activity at 1 uM using AMARAASAAALARRR as substrate measured after 40 mins in presence of [gamma33P]ATP by scintillation counting method assay relative to control
Serine/threonine-protein kinase SIK1 (Homo sapiens), sequence (P57059 whole entry, the tested form may be a part): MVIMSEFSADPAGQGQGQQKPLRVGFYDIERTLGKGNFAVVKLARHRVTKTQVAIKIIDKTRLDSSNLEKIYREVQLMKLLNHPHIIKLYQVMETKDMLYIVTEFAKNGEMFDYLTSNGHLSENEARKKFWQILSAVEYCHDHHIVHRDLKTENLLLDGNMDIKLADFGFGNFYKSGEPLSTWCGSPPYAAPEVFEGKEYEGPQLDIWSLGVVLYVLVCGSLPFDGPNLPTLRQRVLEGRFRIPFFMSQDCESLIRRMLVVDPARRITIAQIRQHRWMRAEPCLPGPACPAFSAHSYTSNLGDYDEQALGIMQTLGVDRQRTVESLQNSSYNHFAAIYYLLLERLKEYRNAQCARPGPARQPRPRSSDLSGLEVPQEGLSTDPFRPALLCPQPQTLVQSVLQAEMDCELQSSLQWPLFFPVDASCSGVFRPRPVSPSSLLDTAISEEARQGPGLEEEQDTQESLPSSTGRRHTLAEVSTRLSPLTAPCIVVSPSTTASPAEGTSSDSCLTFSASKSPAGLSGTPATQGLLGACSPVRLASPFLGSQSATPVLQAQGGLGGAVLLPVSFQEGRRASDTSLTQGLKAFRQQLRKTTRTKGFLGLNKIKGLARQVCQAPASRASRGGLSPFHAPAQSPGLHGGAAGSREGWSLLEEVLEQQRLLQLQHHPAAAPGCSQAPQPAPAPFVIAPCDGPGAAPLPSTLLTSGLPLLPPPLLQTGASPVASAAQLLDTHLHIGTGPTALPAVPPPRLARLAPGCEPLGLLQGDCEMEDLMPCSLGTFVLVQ

[15] = system: SNF-related serine/threonine-protein kinase (Homo sapiens), Q9NRH2 [UNDEFINED MUTATION]; assay: Inhibition of human SNRK E97G/P116A mutant (65 to 409 residues) assessed as residual activity at 1 uM using KKLRRTLSFAEPG as substrate measured after 40 mins in presence of [gamma33P]ATP by scintillation counting method relative to control
[16] = system: Angiopoietin-1 receptor (Homo sapiens), Q02763 [Q939H,Q940H]; assay: Inhibition of human Tie2 Q939H/Q940H mutant (771 to end residues) assessed as residual activity at 1 uM using poly(Glu, Tyr) 4:1 as substrate measured after 40 mins in presence of [gamma33P]ATP by scintillation counting method relative to control
[17] = target: Serine/threonine-protein kinase tousled-like 1 (Homo sapiens) (UniProt Q9UKI8); assay: Inhibition of recombinant full-length human TLK1 at 1 uM assessed as residual activity at 1 uM using casein as substrate measured after 40 mins in presence of [gamma33P]ATP by scintillation counting method relative to control
[18] = target: Tyrosine-protein kinase Yes (Homo sapiens) (UniProt P07947); assay: Inhibition of recombinant full-length human Yes at 1 uM assessed as residual activity at 1 uM using poly(Glu, Tyr) 4:1 as substrate measured after 40 mins in presence of [gamma33P]ATP by scintillation counting method relative to control
Tyrosine-protein kinase Yes (Homo sapiens), sequence (P07947 2-543 limits assumed): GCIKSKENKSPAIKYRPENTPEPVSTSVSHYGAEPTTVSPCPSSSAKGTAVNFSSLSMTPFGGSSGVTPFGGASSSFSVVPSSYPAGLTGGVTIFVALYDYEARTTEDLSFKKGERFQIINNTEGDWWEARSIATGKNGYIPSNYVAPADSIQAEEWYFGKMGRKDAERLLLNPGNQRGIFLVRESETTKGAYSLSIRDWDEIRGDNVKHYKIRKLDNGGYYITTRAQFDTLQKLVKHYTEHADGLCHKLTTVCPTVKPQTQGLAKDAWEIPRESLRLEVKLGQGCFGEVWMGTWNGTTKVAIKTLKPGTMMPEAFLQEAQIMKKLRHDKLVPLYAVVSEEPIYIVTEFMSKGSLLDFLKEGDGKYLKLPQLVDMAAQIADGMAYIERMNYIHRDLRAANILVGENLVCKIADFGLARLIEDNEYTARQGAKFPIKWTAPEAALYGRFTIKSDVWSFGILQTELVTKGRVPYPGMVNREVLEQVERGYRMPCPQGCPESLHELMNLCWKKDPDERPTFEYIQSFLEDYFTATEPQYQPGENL

[19] = target: Mitogen-activated protein kinase kinase kinase 20 (Homo sapiens) (UniProt Q9NYL2); assay: Inhibition of recombinant full-length human ZAK at 1 uM assessed as residual activity at 1 uM using MBP as substrate measured after 40 mins in presence of [gamma33P]ATP by scintillation counting method relative to control
Mitogen-activated protein kinase kinase kinase 20 (Homo sapiens), sequence (Q9NYL2 2-800 limits assumed): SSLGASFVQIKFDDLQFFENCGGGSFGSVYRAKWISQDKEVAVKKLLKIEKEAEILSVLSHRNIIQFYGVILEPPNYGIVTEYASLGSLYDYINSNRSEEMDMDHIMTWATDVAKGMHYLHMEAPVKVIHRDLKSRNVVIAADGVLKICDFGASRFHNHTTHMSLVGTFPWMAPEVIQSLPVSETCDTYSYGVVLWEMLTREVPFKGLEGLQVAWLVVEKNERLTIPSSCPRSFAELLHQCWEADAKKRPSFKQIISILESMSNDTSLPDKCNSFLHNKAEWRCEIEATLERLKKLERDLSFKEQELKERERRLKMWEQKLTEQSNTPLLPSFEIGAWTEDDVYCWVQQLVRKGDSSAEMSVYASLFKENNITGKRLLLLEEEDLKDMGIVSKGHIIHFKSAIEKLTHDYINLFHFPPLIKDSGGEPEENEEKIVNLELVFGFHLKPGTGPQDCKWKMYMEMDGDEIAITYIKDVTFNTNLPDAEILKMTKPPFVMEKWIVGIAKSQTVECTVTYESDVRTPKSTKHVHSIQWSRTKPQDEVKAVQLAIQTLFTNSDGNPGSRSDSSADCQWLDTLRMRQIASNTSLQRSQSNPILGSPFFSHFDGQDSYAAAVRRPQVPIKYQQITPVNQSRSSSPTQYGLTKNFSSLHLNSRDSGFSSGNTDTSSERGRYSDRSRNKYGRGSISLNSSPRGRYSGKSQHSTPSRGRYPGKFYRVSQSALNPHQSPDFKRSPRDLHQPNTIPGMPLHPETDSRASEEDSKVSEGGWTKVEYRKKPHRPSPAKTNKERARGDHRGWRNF

Row | Structure (SMILES) | Activity [1] [%] | Activity [2] [%] | Activity [3] [%] | Activity [4] [%] | Activity [5] [%] | Activity [6] [%] | activity at 40 min, 1 µM (GSK-3beta (H350L mutant)) [%] | Activity [7] [%] | Activity [8] [%] | Activity [9] [%] | Activity [10] [%] | Activity [11] [%] | Activity [12] [%] | Activity [13] [%] | Activity [14] [%] | Activity [15] [%] | Activity [16] [%] | Activity [17] [%] | Activity [18] [%] | Activity [19] [%]
1 | C=CCOC(=O)c1cc(-c2ccc(/C=C3/NC(=S)NC3=O)o2)ccc1Cl | 110 | 87 | 99 | 101 | 105 | 100 | 31 | 129 | 105 | 99 | 103 | 102 | 100 | 98 | 107 | 83 | 107 | 101 | 90 | 115
2 | N=C1NC(=O)/C(=C\c2ccc(-c3cccc([N+](=O)[O-])c3)o2)S1 | 80 | 93 | 104 | 101 | 93 | 96 | 17 | 62 | 92 | 96 | 98 | 95 | 92 | 97 | 105 | 110 | 113 | 110 | 76 | 114

Source: ChEMBL document CHEMBL4334438, “Discovery of novel glycogen synthase kinase-3α inhibitors: Structure-based virtual screening, preliminary SAR and biological evaluation for treatment of acute myeloid leukemia” (Eur J Med Chem, 2019)
